Reference: ChEMBL document CHEMBL1159301, “Isolation and absolute configuration of ent-Halimane diterpenoids from Hymenaea courbaril from the Suriname rain forest” (J Nat Prod, 2002)
Calls of active or inactive are those of the source. The calls are words filed in the database; no cut-off is given here.

Assays:
Saccharomyces cerevisiae = test: DNA damaging activity against yeast 1138 mutant assessed as drug level required to produce 12 mm zone of inhibition; type: functional
A2780 = test: Cytotoxicity against human A2780 cells after 48 hrs by alamar blue assay; type: functional, cell-based

C=C[C@](C)(O)CC[C@]1(C)C2=CC(=O)C[C@](C)(C(=O)O)[C@H]2CC[C@H]1C was tested, and the Activity (Saccharomyces cerevisiae) was “inactive” and the Activity (A2780) was “inactive”.

With C=C[C@](C)(O)CC[C@]1(C)C2=CCC[C@](C)(C(=O)O)[C@H]2CC[C@H]1C the IC12 (Saccharomyces cerevisiae) was 925 µg/mL and the IC50 (A2780; A2780, 48 h) was over 40 µg/mL.

C=C[C@](C)(O)CC[C@]1(C)C2=CCC[C@](C)(C(=O)N[C@@H](C(=O)OC)c3ccccc3)[C@H]2CC[C@H]1C was tested, and the Activity (Saccharomyces cerevisiae) was “inactive” and the Activity (A2780) was “inactive”.

With C=C[C@](C)(O)CC[C@]1(C)C2=CCC[C@](C)(C(=O)N[C@H](C(=O)OC)c3ccccc3)[C@H]2CC[C@H]1C the Activity (Saccharomyces cerevisiae) was “inactive” and the Activity (A2780) was “inactive”.
